Literature values as cited in patent US20150104511A1, “Pharmaceutical Antiretroviral Combinations Comprising Lamivudine, Festinavir and Nevirapine” (Cipla Limited, priority 2012, published 2015).

How the values were obtained:
mtDNA pol γ = molecular target: T1, mtDNA pol γ (Homo sapiens, UniProt P54098); conditions: compared to d4T-triphosphate
T1 sequence (P54098 1-1239): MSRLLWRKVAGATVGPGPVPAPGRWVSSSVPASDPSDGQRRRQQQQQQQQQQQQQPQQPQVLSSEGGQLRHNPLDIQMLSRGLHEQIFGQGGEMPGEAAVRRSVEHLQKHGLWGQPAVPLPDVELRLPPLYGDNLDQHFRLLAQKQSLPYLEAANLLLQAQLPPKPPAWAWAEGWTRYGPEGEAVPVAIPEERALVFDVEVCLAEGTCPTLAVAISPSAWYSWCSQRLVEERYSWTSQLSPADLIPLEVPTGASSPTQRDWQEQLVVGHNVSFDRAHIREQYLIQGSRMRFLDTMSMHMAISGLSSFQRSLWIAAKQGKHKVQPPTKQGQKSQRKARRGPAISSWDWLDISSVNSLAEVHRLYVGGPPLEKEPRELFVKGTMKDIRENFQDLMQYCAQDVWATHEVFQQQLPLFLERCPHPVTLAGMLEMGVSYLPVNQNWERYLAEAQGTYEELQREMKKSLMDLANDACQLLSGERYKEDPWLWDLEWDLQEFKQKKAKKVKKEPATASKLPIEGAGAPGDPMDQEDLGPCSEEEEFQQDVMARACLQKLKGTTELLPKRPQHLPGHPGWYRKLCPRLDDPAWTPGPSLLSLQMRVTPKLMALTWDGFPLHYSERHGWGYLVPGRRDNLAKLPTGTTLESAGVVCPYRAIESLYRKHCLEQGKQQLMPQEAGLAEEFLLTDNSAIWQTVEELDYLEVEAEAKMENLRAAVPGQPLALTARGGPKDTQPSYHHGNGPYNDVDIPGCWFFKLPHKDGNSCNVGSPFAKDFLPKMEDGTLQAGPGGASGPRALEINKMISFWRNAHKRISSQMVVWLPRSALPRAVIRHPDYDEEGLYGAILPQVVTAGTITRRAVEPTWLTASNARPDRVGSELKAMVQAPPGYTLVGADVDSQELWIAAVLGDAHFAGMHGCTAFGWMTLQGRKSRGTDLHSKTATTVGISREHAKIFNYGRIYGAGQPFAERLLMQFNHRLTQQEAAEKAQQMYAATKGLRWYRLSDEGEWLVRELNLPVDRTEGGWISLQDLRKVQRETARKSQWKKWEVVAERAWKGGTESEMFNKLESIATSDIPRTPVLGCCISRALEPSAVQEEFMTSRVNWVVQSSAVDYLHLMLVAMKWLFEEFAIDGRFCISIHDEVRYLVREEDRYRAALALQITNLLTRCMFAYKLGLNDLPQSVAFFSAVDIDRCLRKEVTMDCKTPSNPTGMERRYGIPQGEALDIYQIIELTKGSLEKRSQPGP

[1] = molecular target: RT (Reverse Transcriptase) (Human immunodeficiency virus type 1 group M subtype B, UniProt P04585); conditions: compared to d4T-triphosphate

| Structure (SMILES) | interactions with mtDNA pol γ (mtDNA pol γ) | increase in affinity to RT (Reverse Transcriptase) [1] | in vitro toxicity, including effects on mtDNA (mtDNA; as compared to stavudine (d4T)) | cellular and mitochondrial toxicity (mtDNA; compared with stavudine (d4T)) | persistence of anti-HIV activity after drug removal (HIV; compared with the other thymidine analogs) | improved potency as compared to stavudine (d4T) (HIV; relative to stavudine (d4T)) |
| --- | --- | --- | --- | --- | --- | --- |
| C#C[C@@]1(COP(=O)(O)OP(=O)(O)OP(=O)(O)O)C=C[C@H](n2cc(C)c(=O)[nH]c2=O)O1 [4′-Ed4T triphosphate] | reduces the interactions with mtDNA pol γ | approximately 5 fold | – | – | – | – |
| C#C[C@@]1(CO)C=C[C@H](n2cc(C)c(=O)[nH]c2=O)O1 [Festinavir, 2′,3′-didehydro-3′-deoxy-4′-ethynylthymidine] | – | – | reduced in vitro toxicity | lower cellular and mitochondrial toxicity | more persistent anti-HIV activity after drug removal | 5-10 fold |
